# US11820766B2, “Monoacylglycerol lipase modulators” (Janssen Pharmaceutica NV, priority 2018, dated 2023)
# Target: T1, human MGL from HeLa cells (Homo sapiens, UniProt Q99685)
# T1 construct: combining endogenously expressed MGL from HeLa cells with test compounds; endogenous in cells; host or cells: HeLa cells / cell homogenates
# T1 sequence (Q99685 1-303): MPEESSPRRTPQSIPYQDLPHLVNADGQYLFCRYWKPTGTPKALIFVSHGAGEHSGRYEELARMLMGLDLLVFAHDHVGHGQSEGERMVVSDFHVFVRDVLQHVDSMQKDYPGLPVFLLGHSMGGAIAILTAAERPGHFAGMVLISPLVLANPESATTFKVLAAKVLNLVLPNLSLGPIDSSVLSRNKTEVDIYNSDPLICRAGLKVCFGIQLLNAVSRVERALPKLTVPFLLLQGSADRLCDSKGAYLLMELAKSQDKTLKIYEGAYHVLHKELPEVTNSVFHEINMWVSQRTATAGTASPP
# Test: In vitro MGL activity assay: [glycerol-1,3-3H]-oleyl glycerol cleavage by MGL from HeLa cells
# Type: biochemical
# Settings: 300 nM [Glycerol-1,3-3H]-oleyl glycerol, one hour
# Excerpt: MGL is the predominant hydrolase in HeLa cells/cell homogenates.
row,IC50 [nM],Structure (SMILES)
1,312,"Cc1nc2c(C)ncc(C)n2c1C(=O)N1CCc2c(nn(C)c2-c2cc(F)c(F)c(F)c2)[C@@H]1C [Example 459, [(7S)-2,7-Dimethyl-3-(3,4,5-trifluorophenyl)-5,7-dihydro-4H-pyrazolo[3,4-c]pyridin-6-yl]-(2,5,8-trimethylimidazo[1,2-a]pyrazin-3-yl)methanone]"
2,10.7,"Cc1cc(C(=O)N2CCc3c(nn(C)c3-c3cc(F)c(F)c(F)c3)[C@@H]2C)c2cnn(C)c2n1 [Example 424, (1,6-Dimethylpyrazolo[3,4-b]pyridin-4-yl)-[(7S)-2,7-dimethyl-3-(3,4,5-trifluorophenyl)-5,7-dihydro-4H-pyrazolo[3,4-c]pyridin-6-yl]methanone]"
3,136,"C[C@H]1c2nn(C)c(-c3cc(F)c(F)c(F)c3)c2CCN1C(=O)c1cnc2c(c1)OCCO2 [Example 570, 2,3-Dihydro-[1,4]dioxino[2,3-b]pyridin-7-yl-[(7S)-2,7-dimethyl-3-(3,4,5-trifluorophenyl)-5,7-dihydro-4H-pyrazolo[3,4-c]pyridin-6-yl]methanone]"
4,25.6,"COc1cc(F)cc(-c2c3c(nn2C)[C@H](C)N(C(=O)c2ccc4c(c2)OCCC4)CC3)c1 [Example 611, Chroman-7-yl-[(7S)-3-(3-fluoro-5-methoxy-phenyl)-2,7-dimethyl-5,7-dihydro-4H-pyrazolo[3,4-c]pyridin-6-yl]methanone]"
5,20.3,"C[C@H]1c2nn(C)c(-c3cc(F)c(F)c(F)c3)c2CCN1C(=O)c1n[nH]c2ccc(F)cc12 [Example 364, [(7S)-2,7-Dimethyl-3-(3,4,5-trifluorophenyl)-5,7-dihydro-4H-pyrazolo[3,4-c]pyridin-6-yl]-(5-fluoro-1H-indazol-3-yl)methanone]"
6,80.7,"C[C@H]1c2nn(C)c(-c3cc(F)c(F)c(F)c3)c2CCN1C(=O)c1ccc2nc(O)ccc2c1 [Example 517, [(7S)-2,7-Dimethyl-3-(3,4,5-trifluorophenyl)-5,7-dihydro-4H-pyrazolo[3,4-c]pyridin-6-yl]-(2-hydroxy-6-quinolyl)methanone]"
7,30.5,"Cc1onc(C(=O)N2CCc3c(nn(C)c3-c3cc(F)c(F)c(F)c3)[C@@H]2C)c1C [Example 352, (4,5-Dimethylisoxazol-3-yl)-[(7S)-2,7-dimethyl-3-(3,4,5-trifluorophenyl)-5,7-dihydro-4H-pyrazolo[3,4-c]pyridin-6-yl]methanone]"
8,502,"COc1cc(-c2c3c(nn2C)[C@H](C)N(C(=O)c2ccc4ncccc4c2)CC3)ccn1 [Example 526, [(7S)-3-(2-Methoxy-4-pyridyl)-2,7-dimethyl-5,7-dihydro-4H-pyrazolo[3,4-c]pyridin-6-yl]-(6-quinolyl)methanone]"
9,192,"Cc1ccn2cnc(C(=O)N3CCc4c(nn(C)c4-c4cc(F)c(F)c(F)c4)[C@@H]3C)c2c1 [Example 419, [(7S)-2,7-Dimethyl-3-(3,4,5-trifluorophenyl)-5,7-dihydro-4H-pyrazolo[3,4-c]pyridin-6-yl]-(7-methylimidazo[1,5-a]pyridin-1-yl)methanone]"
10,189,"C[C@H]1c2nn(C)c(-c3cc(F)c(F)c(F)c3)c2CCN1C(=O)c1ccc2ncncc2c1 [Example 479, [(7S)-2,7-Dimethyl-3-(3,4,5-trifluorophenyl)-5,7-dihydro-4H-pyrazolo[3,4-c]pyridin-6-yl]-quinazolin-6-yl-methanone]"
11,102,"C[C@H]1c2nn(C)c(-c3cc(F)c(F)c(F)c3)c2CCN1C(=O)c1cccc2c1OC1(CC1)CN2 [Example 604, [(7S)-2,7-Dimethyl-3-(3,4,5-trifluorophenyl)-5,7-dihydro-4H-pyrazolo[3,4-c]pyridin-6-yl]-spiro[3,4-dihydro-1,4-benzoxazine-2,1′-cyclopropane]-8-yl-methanone]"

# Same assay, conditions: 300 nM [Glycerol-1,3-3H]-oleyl glycerol, one hour incubation
row,IC50 [nM],Structure (SMILES)
1,441,"COc1ccc(C(=O)N2CCc3c(nn(C)c3-c3ccccc3)C2)cc1OC [Example 9, (3,4-Dimethoxyphenyl)(2-methyl-3-phenyl-2,4,5,7-tetrahydro-6H-pyrazolo[3,4-c]pyridin-6-yl)methanone]"
2,71.7,"C[C@H]1c2nn(C)c(-c3cc(F)cc(F)c3)c2CCN1C(=O)c1ccccc1-n1nccn1 [Example 147, (S)-(2-(2H-1,2,3-Triazol-2-yl)phenyl)(3-(3,5-difluorophenyl)-2,7-dimethyl-2,4,5,7-tetrahydro-6H-pyrazolo[3,4-c]pyridin-6-yl)methanone]"
3,78.9,"C[C@H]1c2nn(C)c(-c3cc(F)c(F)c(F)c3)c2CCN1C(=O)c1cn(C)c2cnccc12 [Example 221, (S)-(2,7-Dimethyl-3-(3,4,5-trifluorophenyl)-2,4,5,7-tetrahydro-6H-pyrazolo[3,4-c]pyridin-6-yl)(1-methyl-1H-pyrrolo[2,3-c]pyridin-3-yl)methanone]"
4,26.9,"Cc1ccc(-c2c3c(nn2C)[C@H](C)N(C(=O)c2ccc4nccnc4c2)CC3)cc1Cl [Example 183, (S)-(3-(3-Chloro-4-methylphenyl)-2,7-dimethyl-2,4,5,7-tetrahydro-6H-pyrazolo[3,4-c]pyridin-6-yl)(quinoxalin-6-yl)methanone]"
5,662,"Cn1nc2c(c1-c1ccccc1)CCN(C(=O)c1n[nH]c3c(Cl)cccc13)C2 [Example 69, (7-Chloro-1H-indazol-3-yl)(2-methyl-3-phenyl-2,4,5,7-tetrahydro-6H-pyrazolo[3,4-c]pyridin-6-yl)methanone]"
6,755,"Cn1nc2c(c1-c1ccccc1)CCN(C(=O)c1cccc3scnc13)C2 [Example 61, Benzo[d]thiazol-4-yl(2-methyl-3-phenyl-2,4,5,7-tetrahydro-6H-pyrazolo[3,4-c]pyridin-6-yl)methanone]"
7,6.37,"C[C@H]1c2nn(C)c(-c3cc(F)cc(Cl)c3)c2CCN1C(=O)c1ccc2nccnc2c1 [Example 181, (S)-(3-(3-Chloro-5-fluorophenyl)-2,7-dimethyl-2,4,5,7-tetrahydro-6H-pyrazolo[3,4-c]pyridin-6-yl)(quinoxalin-6-yl)methanone]"
8,7140,"Cn1nc2c(c1-c1ccccc1)CCN(C(=O)c1cccc3ncnn13)C2 [Example 85, [1,2,4]Triazolo[1,5-a]pyridin-5-yl(2-methyl-3-phenyl-2,4,5,7-tetrahydro-6H-pyrazolo[3,4-c]pyridin-6-yl)methanone]"
9,312,"COc1ccc(C)c(C(=O)N2CCc3c(nn(C)c3-c3cc(F)c(F)c(F)c3)[C@@H]2C)n1 [Example 302, [(7S)-2,7-Dimethyl-3-(3,4,5-trifluorophenyl)-5,7-dihydro-4H-pyrazolo[3,4-c]pyridin-6-yl]-(6-methoxy-3-methyl-2-pyridyl)methanone]"
10,11.8,"CC1c2nn(C)c(-c3cc(F)cc(F)c3)c2CCN1C(=O)c1ccc2ncccc2c1Cl (stereo not drawn) [Example 163, (5-Chloroquinolin-6-yl)(3-(3,5-difluorophenyl)-2,7-dimethyl-2,4,5,7-tetrahydro-6H-pyrazolo[3,4-c]pyridin-6-yl)methanone]"
11,1840,"CCc1c(OC)cccc1C(=O)N1CCc2c(nn(C)c2-c2ccccc2)C1 [Example 8, (2-Ethyl-3-methoxyphenyl)(2-methyl-3-phenyl-2,4,5,7-tetrahydro-6H-pyrazolo[3,4-c]pyridin-6-yl)methanone]"
12,56.2,"Cn1nc2c(c1-c1ccccc1)CCN(C(=O)c1ccc3[nH]ncc3c1)C2 [Example 64, (1H-Indazol-5-yl)(2-methyl-3-phenyl-2,4,5,7-tetrahydro-6H-pyrazolo[3,4-c]pyridin-6-yl)methanone]"
13,2230,"C[C@H]1c2nn(C)c(-c3cncc(C(F)(F)F)c3)c2CCN1C(=O)c1ccc2nccnc2c1 [Example 248, (S)-(2,7-Dimethyl-3-(5-(trifluoromethyl)pyridin-3-yl)-2,4,5,7-tetrahydro-6H-pyrazolo[3,4-c]pyridin-6-yl)(quinoxalin-6-yl)methanone]"
14,226,"Cn1nc2c(c1-c1ccccc1)CCN(C(=O)c1onc3ccccc13)C2 [Example 55, Benzo[c]isoxazol-3-yl(2-methyl-3-phenyl-2,4,5,7-tetrahydro-6H-pyrazolo[3,4-c]pyridin-6-yl)methanone]"
15,386,"COc1ccc(-c2c3c(nn2C)[C@H](C)N(C(=O)c2ccc4nccnc4c2)CC3)cc1F [Example 185, (S)-(3-(3-Fluoro-4-methoxyphenyl)-2,7-dimethyl-2,4,5,7-tetrahydro-6H-pyrazolo[3,4-c]pyridin-6-yl)(quinoxalin-6-yl)methanone]"
16,1320,"Cn1nc2c(c1-c1ccccc1)CCN(C(=O)c1cnc3ccccn13)C2 [Example 81, Imidazo[1,2-a]pyridin-3-yl(2-methyl-3-phenyl-2,4,5,7-tetrahydro-6H-pyrazolo[3,4-c]pyridin-6-yl)methanone]"
17,1190,"Cn1nc2c(c1-c1ccccc1)CCN(C(=O)c1cccc3cncn13)C2 [Example 79, Imidazo[1,5-a]pyridin-5-yl(2-methyl-3-phenyl-2,4,5,7-tetrahydro-6H-pyrazolo[3,4-c]pyridin-6-yl)methanone]"
18,3.24,"COc1cc(C(=O)N2CCc3c(nn(C)c3-c3cc(F)c(F)c(F)c3)[C@@H]2C)cc(-n2cncn2)c1 [Example 278, [(7S)-2,7-Dimethyl-3-(3,4,5-trifluorophenyl)-5,7-dihydro-4H-pyrazolo[3,4-c]pyridin-6-yl]-[3-methoxy-5-(1,2,4-triazol-1-yl)phenyl]methanone]"
19,132,"CNC(=O)c1cccc(C(=O)N2CCc3c(nn(C)c3-c3cc(F)c(F)c(F)c3)[C@@H]2C)c1 [Example 266, 3-[(7S)-2,7-Dimethyl-3-(3,4,5-trifluorophenyl)-5,7-dihydro-4H-pyrazolo[3,4-c]pyridine-6-carbonyl]-N-methyl-benzamide]"
